Measurements taken from article PMC7725506, “Functional Diversification of SRSF Protein Kinase to Control Ubiquitin-Dependent Neurodevelopmental Signaling” (Developmental Cell, 2020).

Key:
[1] = target: SRPK1 (Homo sapiens, UniProt Q96SB4); type: biochemical; conditions: read-out: IC50, inhibition of RNF12 phosphorylation by SRPK1
Description: Cells were lysed, and 1.5 mg of protein immunoprecipitated with 2 μg of SRPK1 or SRPK2 antibodies (BD Biosciences). Immunoprecipitates were then washed with lysis buffer supplemented with 500 mM NaCl and half of the sample was resuspended in loading buffer. The remainder was subjected to in vitro phosphorylation assay containing 0.5 μg RNF12 and 2 mM ATP in kinase buffer (50 mM Tris-HCl [pH 7.5], 0.1 mM EGTA, 10 mM MgCl2, 2 mM DTT) and incubated at 30°C for 30 min. […] For radioactive in vitro kinase assays, reactions were supplemented with 1 μCi γ-^32P ATP. Reactions were incubated at 30°C for 30 min in presence or absence of inhibitor as indicated and samples subjected to polyacrylamide electrophoresis and immunoblot or Coomassie blue staining and signal detected via ECL, infrared detection or autoradiography.
Supplemental Figure Legends
(Related to Figure 1). (A) Wild-type (WT) mESCs were analysed for protein copy number by absolute quantitative proteomics. […]
Data are represented as mean ± S.E.M. (n=3). […] ND = not detected. (B) Inhibition of RNF12 phosphorylation in vitro by SRPK1 and SRPK2 in the presence of varying concentrations of the indicated SRPK inhibitors was determined by immunoblotting for RNF12 phospho-Ser214 (Left). […] Immunoblots were quantified to generate SRPK inhibitor dose-response curves for inhibition of RNF12 phosphorylation by SRPK1 and SRPK2 in vitro (Right). […]

[2] = test system: RNF12 SR-motif; experiment: RNF12 SR-motif phosphorylation in mESCs by phos-tag immunoblotting; type: cell-based, mouse; conditions: 10 μM, 4 h
Source text: RNF12 4xSA = S212A/S214A/S227A/S229A. (B) Rlim^−^/y mESCs were transfected with the indicated RNF12 constructs and lysates treated with λ-phosphatase and analyzed by phos-tag immunoblotting for RNF12. Unphosphorylated recombinant RNF12 is included as a control. […] RNF12 4xSA is included as an unphosphorylated control. […] (F) Phosphorylated peptides detected by mass spectrometry following in vitro phosphorylation of RNF12 by SRPK1. pS, phospho-serine. (G) Autoradiography of RNF12 WT or S212A/S214A/S227A/S229A (4xSA) following a radioactive kinase reaction with SRPK1, SRPK2, or SRPK3. RNF12 protein is detected by Coomassie staining. (H) Srpk1^+/+ and Srpk1^−/− mESCs were transfected with control or SRPK2 siRNA and RNF12 SR-motif phosphorylation analyzed by phos-tag immunoblotting for RNF12. SRPK2, SRPK1, RNF12, and ERK1/2 levels were determined by immunoblotting. Related to Figure S2; Tables S3 and S4.
All compounds were diluted in DMSO and mESCs treated with 10 μM inhibitor for 4 h prior lysis unless indicated otherwise. […] For proteasome inhibition mESCs were treated with 10 μM MG132 (Sigma Aldrich) for 6 h. All chemicals are listed in the Key Resource Table.
Phos-tag analyses were performed by loading protein samples containing 10 mM MnCl2 in 8% polyacrylamide gels containing 50 μM Phos-tag reagent (MRC-PPU reagents and services) and 0.1 mM MnCl2. After electrophoresis, gels were washed three times for 10 mins in Transfer buffer (48 mM Tris, 39 mM Glycine, 20% Methanol) supplemented with 20 mM EDTA. Proteins were then transferred to Nitrocellulose membranes, blocked and probed with the indicated antibodies. All protein signals were quantified using Image Studio (LI-COR Biosciences) or Image Lab software (Bio-Rad). Primary antibodies are listed in the Key Resource Table. […]
SR-motif phosphorylation of HA-immunoprecipitated RNF12 analysed by phos-tag immunoblotting.
HA-RNF12 levels are shown as a control. Fully phosphorylated (4-P) and unphosphorylated (0-P) RNF12 SR-motif is indicated by open (○) and closed (●) circles respectively.
Data are represented as mean ± S.D. (n=3). (C) RNF12 expressing mESCs were treated with 10 […]
immunoblotting. HA-RNF12 and ERK1/2 levels are shown as a control. (D) RNF12 expressing […]
5 h (+ wash-out). RNF12 phosphorylation was analysed via phos-tag immunoblotting. ERK1/2 levels are shown as a loading control. (E) Multiple Srpk1-/- and Srpk2-/- mESC clones were […]

[3] = test system: Foxp1 exon 16-16b alternative splicing switch; experiment: Foxp1 exon 16-16b incorporation in mESCs by quantitative RT-PCR; type: cell-based, mouse; conditions: 8 h
Description: SRSF phosphorylation, SRPK1, SRPK2, and ERK1/2 levels were determined by immunoblotting. Expected positions of SRSFs that are not detected are shown in gray. Quantification of SRSF phosphorylation (Right). Data represented as mean ± SEM (n = 4). […] Neuro 2a is a control for exon 16b exclusion in differentiated cells (Bottom). Data represented as mean ± SEM (n = 3). […] Exon 16 inclusion: (^∗∗∗∗) p < 0.0001, Exon 16b inclusion: (^∗) p = 0.0164, p = 0.0485, and p = 0.0489 (left to right). Ratio exon 16b/16: (^∗∗∗∗) p < 0.0001, (^∗∗∗) p = 0.0003. (C) SRPK substrates predicted using ScanProsite and grouped according to UniProt functions. (D) RNF12 phosphorylation sites detected by mass-spectrometry. LZL, leucine-zipper like; NLS, nuclear localization signal; NES, nuclear export signal; RING, RING E3 ubiquitin ligase catalytic domain. (E) CMGC family kinase copy numbers in mESCs determined by quantitative proteomics and represented using Kinoviewer. (F) CMGC kinase (200 mU) phosphorylation of the RNF12 SR-motif in vitro was determined by immunoblotting for RNF12 phospho-Ser214 and total RNF12. […] Normalized RNF12 Ser214 phosphorylation is shown below. Data represented as mean ± SEM (n = 3). […] RNF12 SR-motif phosphorylation was analyzed by immunoblotting for RNF12 phospho-Ser214 and RNF12. SRPK1 and SRPK2 levels are shown as a loading control, Related to Figure S1; Tables S1 and S2.
Total RNA extraction and reverse transcription was performed as described. Quantitative PCR reactions using SsoFast EvaGreen Supermix (Bio-Rad) were performed in a CFX384 real time PCR system (Bio-Rad). Relative RNA expression was calculated through the ΔΔCt method and normalised to Gapdh expression. Data was analysed in Excel (Microsoft) and statistical analysis performed in GraphPad Prism v7.0c software (GraphPad Software Inc.).

[4] = test system: RNF12 phospho-Ser214; experiment: RNF12 SR-motif phosphorylation in mESCs, immunoblotting for RNF12 phospho-Ser214 and total RNF12; type: cell-based, mouse; conditions: 10 μM, 4 h
[5] = test system: RNF12 4xSA-KI mESCs; experiment: RNF12 localization by immunofluorescence in RNF12 4xSA-KI mESCs; type: cell-based, mouse; conditions: 30 nM, 6 h
Description: Figure 3 SRPK Phosphorylation of RNF12 Regulates Nuclear Anchoring and E3 Ubiquitin Ligase Activity (A) RNF12 localization in wild-type knockin (WT-KI), SR-motif phosphorylation site knockin (4xSA-KI), or SR-motif deletion (ΔSR-KI) mESCs was determined by immunofluorescence. Scalebar: 20 μm (Left). Quantification of the Nucleus/cytosol fluorescence intensity ratio (Right). Data represented as mean ± SEM. […] (^∗∗∗∗) p < 0.0001. (B) RNF12 4xSA-KI mESCs were treated with 30 nM leptomycin B for 6 h and RNF12 localization analyzed by immunofluorescence. Scale bar: 20 μm (Top). Quantification of the nucleus/cytosol fluorescence intensity ratio (Bottom). […] (^∗∗∗∗) p < 0.0001. (C) FLAG-tagged SRPK1 and SRPK2 were expressed in mESCs and localization of SRPKs and RNF12 analyzed by immunofluorescence. Scale bar: 20 μm (Left). Quantification of the cytosol/nucleus fluorescence intensity ratio (Right). […] (^∗∗∗∗) p < 0.0001. […] RNF12, REX1 and ERK1/2 were detected by immunoblotting. (^∗) indicates non-specific signal. (E) REX1 levels were analyzed in RNF12 WT-KI, 4xSA-KI, ΔSR-KI, and W576Y-KI mESCs by immunoprecipitation followed by immunoblotting. ERK1/2 levels were detected by immunoblotting. (F) REX1 half-life was determined in RNF12 WT-KI, 4xSA-KI, ΔSR-KI, and W576Y-KI mESCs by immunoblotting. (Top) quantification of HA-REX1 protein levels normalized to ERK1/2 and calculated protein half-life (Bottom). […]

[6] = test system: Ser-Arg rich splicing factors (SRSF); experiment: SRSF phosphorylation in mESCs, immunoblotting with phosphoepitope SR proteins antibody; type: cell-based, mouse; conditions: 10 μM, 4 h

SRPK1, sequence (Q96SB4 whole entry): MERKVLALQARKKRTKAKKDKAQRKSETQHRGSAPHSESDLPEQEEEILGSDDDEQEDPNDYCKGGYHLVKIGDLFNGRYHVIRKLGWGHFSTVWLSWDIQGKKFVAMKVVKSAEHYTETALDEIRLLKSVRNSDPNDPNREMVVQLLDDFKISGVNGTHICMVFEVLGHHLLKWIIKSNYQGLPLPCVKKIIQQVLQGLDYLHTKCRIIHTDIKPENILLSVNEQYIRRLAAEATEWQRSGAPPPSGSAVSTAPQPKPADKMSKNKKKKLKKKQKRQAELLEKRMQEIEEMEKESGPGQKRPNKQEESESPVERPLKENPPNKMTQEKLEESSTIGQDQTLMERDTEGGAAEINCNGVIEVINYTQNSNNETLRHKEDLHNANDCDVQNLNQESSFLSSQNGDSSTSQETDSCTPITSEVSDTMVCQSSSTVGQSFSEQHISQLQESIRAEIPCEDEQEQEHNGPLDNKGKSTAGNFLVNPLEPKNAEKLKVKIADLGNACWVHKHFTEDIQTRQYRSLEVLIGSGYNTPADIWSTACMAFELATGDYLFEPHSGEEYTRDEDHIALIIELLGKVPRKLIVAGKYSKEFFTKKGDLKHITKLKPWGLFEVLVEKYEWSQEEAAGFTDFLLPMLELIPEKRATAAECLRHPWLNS

Structure (SMILES) | RNF12 SR-motif phosphorylation (phos-tag) [2] | RNF12 phospho-Ser214/total ratio [4] | other results
O=C(Nc1cc(C(F)(F)F)ccc1N1CCCCC1)c1ccncc1 [SRPIN340] | – | – | IC50 [1]: 4.7 µM
O=C(Nc1cc(C(F)(F)F)ccc1N1CCN(Cc2ccccn2)CC1)c1ccc(-c2ccncc2)o1 [SPHINX31] | minor effect | – | –
COc1ccc2c(C)nc(Nc3nc(C)c(C)c(=O)[nH]3)nc2c1 [Madrasin] | – | – | Foxp1 exon 16b-exon 16 inclusion ([3]; 10 μM): promotes inclusion of exon 16b over exon 16
O=C1NC(=NCc2cccs2)S/C1=C\c1ccc2ncccc2c1 [RO-3306] | little impact | some effect | –
CN1CC[C@H](c2c(O)cc(O)c3c(=O)cc(-c4ccccc4Cl)oc23)[C@H](O)C1 [flavopiridol] | little impact | some effect | –
CCC(=C/[C@H](C)C/C=C/C(C)=C/[C@@H](C)C(=O)[C@@H](C)[C@H](O)[C@@H](C)C/C(C)=C/C(=O)O)/C=C/[C@@H]1OC(=O)C=C[C@@H]1C [leptomycin B] | – | – | RNF12 4xSA localization [5]: primarily nuclear; nucleus/cytosol ratio of RNF12 4xSA (fluorescence intensity, mean) [5]: 4.08
CN1CCN(C(=O)C(C)(C)c2ccc(C(=O)Nc3cn4cc(-c5ccncc5)ccc4n3)cc2)CC1 [CLK-IN-T3] | minor effect | little impact | Foxp1 exon 16b-exon 16 inclusion ([3]; 1 μM): promotes exon 16b inclusion while suppressing inclusion of exon 16; SRSF phosphorylation [6]: widespread, robust inhibition
